Assay results: patent publication EP1180991B1, “GAMBOGIC ACID DERIVATIVES AS ACTIVATORS OF CASPASES AND INDUCERS OF APOPTOSIS” (Cytovia, Inc., priority 1999, dated 2000)
pEC50: −log10 of the molar value. Values belong to the molecule of their own block, whether it stands above or below them.

Experiments:
[1] = system: T-47D; assay: Caspase cascade activation by known antineoplastic compounds (Example 92); details: 24 h; for fold induction at 10 µM: Homo sapiens, T47D, read-out: ratio of the net RFU value for test compounds to that of control samples (caspase cascade activation)
Experimental: (§3) The samples were mixed by agitation and then incubated at 37° C for 24 h in a 5% CO2-95% humidity incubator. […] The samples were mixed by agitation and incubated for 3 h at room temperature. […] After the 3 h incubation, the samples were read for fluorescence as above (T = 3 h).
(§4) The Relative Fluorescence Unit values (RFU) were used to calculate the sample readings as follows: RFU(T=3⁢hr) −Control RFU(T=0) = Net RFU(T=3⁢hr) [formula]
(§5) The activity in caspase cascade activation was determined by the ratio of the net RFU value for test compounds to that of control samples.

[2] = system: PC-3; assay: as above; details: for fold induction at 10 µM: Homo sapiens, PC-3, 24 h, read-out: ratio of the net RFU value for test compounds to that of control samples (caspase cascade activation)
Experimental: as §3, §4, §5

[3] = system: PC-3; assay: Caspase cascade activation assay (Example 90); format: cell-based, human; details: PC-3, 24 h incubation; for pEC50: Homo sapiens, caspase activation, read-out: EC50
Experimental: (§1) Human breast cancer cell lines T-47D and ZR-75-1, human prostate cancer cell line PC-3, human leukemia cancer cell line HL-60 and human non-transformed fibroblast cell line MRC-5 cells were grown according to media component mixtures designated by The American Type Culture Collection + 10% FCS (Life Technologies, Inc.), in a 5% CO2 -95% humidity incubator at 37° C. T-47D, ZR-75-1 and PC-3 cells were maintained at a cell density between 30 and 80% confluency and for HL-60 at a cell density of 0.1 to 0.6 x 10^6 cells/ml. Cells were harvested at 600xg and resuspended at 0.65 x 10^6 cells/ml into appropriate media + 10% FCS. […] The samples were mixed by agitation and incubated at room temperature.
(§2) The EC50 (nM) was determined by a sigmoidal dose-response calculation (Prism 2.0, GraphPad Software Inc.). Caspase Activity and Potency

[4] = system: T-47D; assay: Caspase cascade activation assay (Example 90); format: cell-based, human; details: T-47D, 24 h incubation; for pEC50: Homo sapiens, T47D, caspase activation, read-out: EC50
Experimental: as §1, §2

[5] = system: KB; details: Lin et al. 1993; cited from earlier work
[6] = system: KB-V1; details: Lin et al. 1993; cited from earlier work
[7] = system: MRC-5; assay: Caspase cascade activation assay (Example 90); format: cell-based, human; details: Homo sapiens, MRC5; MRC-5 non-transformed fibroblasts; caspase activation, 24 h incubation; read-out: EC50
Experimental: as §1, §2

[8] = system: ZR-75-1; assay: Caspase cascade activation assay (Example 90); format: cell-based, human; details: Homo sapiens; ZR-75-1; caspase activation, 24 h incubation; read-out: EC50
Experimental: as §1, §2

[9] = system: several cancer cell lines; details: several cancer cell lines; Cao et al. 1998; cited from earlier work
[10] = 0.16 to 10 µM final, net RFU ratio to control

Molecule: CC[C@@]1(O)C(=O)OCc2c1cc1n(c2=O)Cc2cc3ccccc3nc2-1 [Camptothecin]
fold induction at 10 µM [1]: 0.7
fold induction at 10 µM [2]: 0.6

Molecule: CN(Cc1cnc2nc(N)nc(N)c2n1)c1ccc(C(=O)N[C@@H](CCC(=O)O)C(=O)O)cc1 [Methotrexate]
fold induction at 10 µM [1]: 0.8
fold induction at 10 µM [2]: 0.7

Molecule: CC(C)=CCC/C(C)=C/Cc1c(O)c(CC=C(C)C)c2c(c1O)C(=O)C1=CC3CC4C(C)(C)OC(C/C=C(/C)C=O)(C3=O)C14O2 (centres unmarked) [Example 3, Gambogenin]
pEC50 [3]: 5.77
caspase activity (Ratio) [3, 10]: 2.9
pEC50 [4]: 6.00
caspase activity (Ratio) [4, 10]: 7.0

Molecule: N.N.[Cl][Pt][Cl] [Cisplatin]
ratio of the net RFU value for test compounds to that of control samples (caspase cascade activation) ([1]; T-47D, 10 µM final, ratio around 1 = not an efficient activator): 1.1
ratio of the net RFU value for test compounds to that of control samples (caspase cascade activation) ([2]; PC-3, 10 µM final, 24 h, ratio around 1 = not an efficient activator): 0.9

Molecule: Isogambogic Acid [Example 18]
cytotoxicity [5]: cytotoxic
cytotoxicity [6]: cytotoxic

Molecule: CC(=O)O[C@H]1C(=O)[C@@]2(C)[C@H]([C@H](OC(=O)c3ccccc3)[C@]3(O)C[C@H](OC(=O)[C@H](O)[C@@H](NC(=O)c4ccccc4)c4ccccc4)C(C)=C1C3(C)C)[C@]1(OC(C)=O)CO[C@@H]1C[C@@H]2O [Taxol]
fold induction at 10 µM [1]: 0.9
fold induction at 10 µM [2]: 0.7

pEC50 [3]: 5.77
pEC50 [4]: 6.08
pEC50 [8]: 5.78
Molecule: COc1c2c(c(CC=C(C)C)c3c1C(=O)C1=CC4CC5C(C)(C)OC(C/C=C(/C)C(=O)N6CCCCC6)(C4=O)C15O3)OC(C)(CCC=C(C)C)C=C2 (centres unmarked) [Example 7, 6-Methoxy-gambogyl Piperidine]
pEC50 [7]: 5.92

Molecule: CC(C)=CCc1c2c(c(O)c3c1OC14C(=CC5CC1C(C)(C)OC4(C/C=C(/C)C(=O)O)C5=O)C3=O)C=CC(C)(C)O2 (centres unmarked) [Example 19, Morellic Acid]
cytotoxicity [9]: significant cytotoxicity

Molecule: COc1cc([C@@H]2c3cc4c(cc3[C@@H](O[C@@H]3O[C@@H]5CO[C@@H](C)O[C@H]5[C@H](O)[C@H]3O)[C@H]3COC(=O)[C@H]23)OCO4)cc(OC)c1O [Etoposide]
fold induction at 10 µM [1]: 1
fold induction at 10 µM [2]: 0.8

Molecule: O=c1[nH]cc(F)c(=O)[nH]1 [5-fluorouracil]
fold induction at 10 µM [1]: 0.8
fold induction at 10 µM [2]: 0.7
